# Measurements from US20110039770A1, “INHIBITORS OF PROTEIN KINASE C ISOFORMS AND USES THEREOF” (PHARMAGAP INC., priority 2005, published 2011).
# Where a SMILES comes first, the peptide text is derived from it.
# Columns and labels:
# PKC-ι = biological target: T1, PKC-ι (Homo sapiens, UniProt P41743); experiment: Competitive binding assay using cell extracts (Western blot); set-up: key: —: no detectable affinity; Low to very low affinity at 10X or 20X or both PRE concentrations in at least one cell line in the cell extract assay; Low affinity in purified isoform assay.; Moderate affinity at 10X or 20X or both PRE concentrations in at least one cell line in the cell extract assay.; High affinity at 10X or 20X or both PRE concentrations in at least one cell line in the cell extract assay; High affinity in purified isoform assay; conditions: Cell extract; PRE 10X or 20X antibody concentration
# T1 construct: cytoplasmic extracts from different cell lines expressing appropriate PKC isoforms; endogenous in cells; host or cells: H661, CCD16Lu, LnCAP, MDAMB231, Du145, LS180
# T1 sequence (P41743 1-596): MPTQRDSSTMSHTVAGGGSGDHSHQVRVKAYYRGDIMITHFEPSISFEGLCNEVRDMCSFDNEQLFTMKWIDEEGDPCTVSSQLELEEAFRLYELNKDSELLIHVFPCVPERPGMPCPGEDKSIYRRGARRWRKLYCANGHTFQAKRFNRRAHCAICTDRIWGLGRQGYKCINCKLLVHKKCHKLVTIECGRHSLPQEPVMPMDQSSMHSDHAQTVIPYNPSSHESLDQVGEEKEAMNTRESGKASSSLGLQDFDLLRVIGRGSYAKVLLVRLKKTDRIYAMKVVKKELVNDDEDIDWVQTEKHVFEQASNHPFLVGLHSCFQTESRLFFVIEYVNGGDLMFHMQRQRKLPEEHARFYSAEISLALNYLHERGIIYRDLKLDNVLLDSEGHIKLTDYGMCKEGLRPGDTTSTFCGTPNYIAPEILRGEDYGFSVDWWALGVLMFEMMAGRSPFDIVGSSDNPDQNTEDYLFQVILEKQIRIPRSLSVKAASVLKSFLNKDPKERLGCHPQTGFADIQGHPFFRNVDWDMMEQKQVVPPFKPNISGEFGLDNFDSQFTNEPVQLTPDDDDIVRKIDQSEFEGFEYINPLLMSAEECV
# Method: Binding efficiency and specificity of the peptides PRE 2, 3, 4, 5, 6, 7, 8, 9, 10, 11, 12 and 13 (see Table 4) was also tested using cytoplasmic extracts from different cell lines expressing appropriate PKC isoforms as described for Example 1. Briefly, the protein cytoplasmic extracts were separated by electrophoresis and transferred onto nitrocellulose membranes by standard Western blotting procedures. The bands on the Western blots were detected with matching primary antibodies and alkaline phosphatase conjugated secondary antibody. The bands were then scanned and the relative density measurements obtained.
# This procedure to assess the binding characteristics of the PREs is based on competition binding of the PRE with the primary anti-isoform PKC specific antibodies. The lower the measured band density, the greater the binding of the PRE to the PKC isoform. The PREs were added at 10 and 20 times (10×, 20×) the primary antibody concentration, according to classical competition between antigenic peptide and primary antibody. The following cell lines (obtained from the ATCC) were used: H661—NCI human lung carcinoma NSCLC; MDAMB231—human highly invasive breast cancer cell line from pleural effusion; LS180—human colon adenocarcinoma; LnCAP—human prostate adenocarcinoma; CCD16Lu—human lung fibroblasts; Du145—human prostate carcinoma brain metastasis, and T24—human bladder carcinoma.
# In these cases, the 20× band density figures relative to control and 10× values were reliable.
# PKC-βII = PKC-βII (Homo sapiens, UniProt P05771); experiment: Competition of PRE with PKC-βII antibody binding, Protocol B, IMR-32; set-up: PKC-βII by PRE 3 and PRE 4 in IMR-32 Neuroblastoma; endogenous in cells; host or cells: IMR-32 human neuroblastoma cells; conditions: Protocol B (control 98.6)
# Chain of PKC-βII (P05771 1-673 isoform P05771-2): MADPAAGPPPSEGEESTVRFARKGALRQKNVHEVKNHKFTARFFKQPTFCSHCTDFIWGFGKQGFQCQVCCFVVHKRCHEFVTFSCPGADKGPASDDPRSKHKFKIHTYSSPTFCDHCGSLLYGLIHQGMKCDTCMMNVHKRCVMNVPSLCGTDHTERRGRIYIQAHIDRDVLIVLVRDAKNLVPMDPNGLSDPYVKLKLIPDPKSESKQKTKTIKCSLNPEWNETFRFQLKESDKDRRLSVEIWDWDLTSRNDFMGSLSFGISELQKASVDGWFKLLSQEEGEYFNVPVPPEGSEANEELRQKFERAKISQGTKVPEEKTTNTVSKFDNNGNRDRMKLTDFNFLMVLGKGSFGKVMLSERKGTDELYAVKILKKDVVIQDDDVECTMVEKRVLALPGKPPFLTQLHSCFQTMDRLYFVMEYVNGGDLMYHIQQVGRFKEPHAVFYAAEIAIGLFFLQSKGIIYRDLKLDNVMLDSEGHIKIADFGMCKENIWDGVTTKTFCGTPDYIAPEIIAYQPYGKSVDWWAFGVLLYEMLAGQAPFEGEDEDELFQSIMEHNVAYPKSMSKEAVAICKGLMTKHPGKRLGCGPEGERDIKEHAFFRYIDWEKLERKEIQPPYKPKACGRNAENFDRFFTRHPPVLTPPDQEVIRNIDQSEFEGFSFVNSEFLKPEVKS
# Method: The ability of the peptides PRE 2 and PRE 3 (see Table 4) to interfere with the binding of a PKC-α-specific polyclonal antibody (Santa Cruz Biotechnology, Inc.) to PKC-α was determined using a modified version of the protocol outlined above in which the test peptide was added directly to the cell extract prior to electrophoresis at a concentration of either 5× or 15× the concentration of the protein applied to each well of the gel for the Western blots (20 μg).
# (§1) Peptides PRE 3 and PRE 4 (see Table 4) were tested for their ability to interfere with the binding of isoform-specific polyclonal antibodies (Santa Cruz Biotechnology, Inc.) to PKC-α, PKC-βI or PKC-βII using the general protocol described in Example 3.
# PKC-α [1] = biological target: T2, PKC-α (Homo sapiens, UniProt P17252); experiment: Competition of PRE with PKC-α antibody binding, Protocol B (peptide added to cell extract before electrophoresis), IMR-32; set-up: endogenous PKC-α in (A) untreated human neuroblastoma (IMR-32) cells; endogenous in cells; host or cells: IMR-32 human neuroblastoma cells
# Method: as §1
# PKC-α [2] = biological target: T2, PKC-α; experiment: Subcellular localisation of PKC-α in IMR-32 cells; type: cell-based; set-up: endogenous PKC-α in (A) untreated human neuroblastoma (IMR-32) cells; endogenous in cells; host or cells: IMR-32 human neuroblastoma cells; conditions: 10 mg/ml, pinocytic endocytosis
# Method: Peptides PRE 3 or PRE 4 (10 mg/ml) were introduced into human neuroblastoma cells (IMR-32) by pinocytic endocytosis. The cells were fixed and stained with rabbit PKC-α primary antibody and anti-rabbit Alexa-488 or Alexa-800 secondary antibody.
# [3] = 100 μg, Example 5 (control 302.5)
# [4] = 200 μg, Example 5 (control 302.5)
# [5] = 300 μg, Example 5 (control 302.5)
molecule,measurement,setting,value
CC[C@H](C)[C@H](NC(=O)[C@H](CO)NC(=O)[C@@H](NC(=O)CNC(=O)[C@@H](NC(=O)[C@H](CC(C)C)NC(=O)[C@H](CC(N)=O)NC(=O)[C@H](CCC(N)=O)NC(=O)[C@H](C)NC(=O)[C@H](CC(=O)O)NC(=O)CNC(=O)CNC(=O)[C@H](CCCCN)NC(=O)[C@@H](NC(=O)[C@H](CCC(=O)O)NC(=O)[C@H](CCC(N)=O)NC(=O)[C@@H](NC(=O)CNC(=O)[C@H](CCCCN)NC(=O)[C@H](C)NC(C)=O)[C@@H](C)CC)C(C)C)[C@@H](C)CC)[C@@H](C)CC)C(N)=O [PRE 3] (Ac-AKGIQEVKGGDAQNLIGISI-NH2),Affinity for PKC isoform ι,PKC-ι,L
same,Band Intensity,PKC-βII; 100 μg,0.0
same,Band Intensity,PKC-βII; 200 μg,0.0
same,Band Intensity,PKC-βII; 300 μg,0.0
same,Band Intensity,"PKC-α [1]; 100 μg, Example 3 (control 0.759)",0.0
same,Band Intensity,PKC-α [1]; [3],0.0
same,Band Intensity,"PKC-α [1]; 200 μg, Example 3 (control 0.759)",0.0
same,Band Intensity,PKC-α [1]; [4],0.0
same,Band Intensity,"PKC-α [1]; 300 μg, Example 3 (control 0.759)",0.0
same,Band Intensity,PKC-α [1]; [5],0.0
same,effect on subcellular localisation of PKC-α,PKC-α [2],does not alter the subcellular localisation of PKC-α
"CC[C@H](C)[C@H](NC(=O)[C@H](CO)NC(=O)[C@@H](NC(=O)CNC(=O)[C@@H](NC(=O)[C@H](CC(C)C)NC(=O)[C@H](CC(N)=O)NC(=O)[C@H](CCC(N)=O)NC(=O)[C@H](C)NC(=O)[C@H](CC(=O)O)NC(=O)[C@H](CCCCN)NC(C)=O)[C@@H](C)CC)[C@@H](C)CC)C(N)=O [PRE 4, Ac-KDAQNLIGISI-NH2] (Ac-KDAQNLIGISI-NH2)",Affinity for PKC isoform ι,PKC-ι,M/L
same,Band Intensity,PKC-βII; 100 μg,69.58
same,Band Intensity,PKC-βII; 200 μg,0.0
same,Band Intensity,PKC-βII; 300 μg,0.0
same,Band Intensity,PKC-α [1]; [3],32.2
same,Band Intensity,PKC-α [1]; [4],1.5
same,Band Intensity,PKC-α [1]; [5],0.0
same,effect on subcellular localisation of PKC-α,PKC-α [2],prevented translocation of PKC-α to the membrane
Ac-ISIGILQNADK-NH2 (not fully specified; printed as Ac-ISIGILQNADK-NH2) [PRE 7],Affinity for PKC isoform ι,PKC-ι,—
Ac-KDANQLIGISI-NH2 [PRE 6],Affinity for PKC isoform ι,PKC-ι,—
Ac-KDAQNLI-NH2 [PRE 12],Affinity for PKC isoform ι,PKC-ι,—
Ac-RDAQNLI-NH2 [PRE 13],Affinity for PKC isoform ι,PKC-ι,—
RRKKGGKDFVVKR [PRE 1],Affinity for PKC isoform ι,PKC-ι,—
